Experimental data from ChEMBL document CHEMBL1201862, “PubChem BioAssay data set” (2004).
Calls of active or inactive are those of the source.

How the values were obtained:
[1] = Late stage results for the probe development effort to identify inhibitors of Plasmodium falciparum gametocytes: Luminescence-based cell-based high throughput dose response assay to identify inhibitors of viability of late stage Plasmodium falciparum gametocytes.; type: functional
[2] = alpha-synuclein stem-loop luciferase translation blockers – H4 neuroglioma cells, luminescence, confirmation (AID 1988); type: functional, cell-based
[3] = target: Luciferin 4-monooxygenase (Photinus pyralis, UniProt P08659); assay: inhibition of purified Photinus pyralis luciferase – biochemical, luminescence, dose response (AID 1891)
Sequence of Luciferin 4-monooxygenase (P08659 whole entry): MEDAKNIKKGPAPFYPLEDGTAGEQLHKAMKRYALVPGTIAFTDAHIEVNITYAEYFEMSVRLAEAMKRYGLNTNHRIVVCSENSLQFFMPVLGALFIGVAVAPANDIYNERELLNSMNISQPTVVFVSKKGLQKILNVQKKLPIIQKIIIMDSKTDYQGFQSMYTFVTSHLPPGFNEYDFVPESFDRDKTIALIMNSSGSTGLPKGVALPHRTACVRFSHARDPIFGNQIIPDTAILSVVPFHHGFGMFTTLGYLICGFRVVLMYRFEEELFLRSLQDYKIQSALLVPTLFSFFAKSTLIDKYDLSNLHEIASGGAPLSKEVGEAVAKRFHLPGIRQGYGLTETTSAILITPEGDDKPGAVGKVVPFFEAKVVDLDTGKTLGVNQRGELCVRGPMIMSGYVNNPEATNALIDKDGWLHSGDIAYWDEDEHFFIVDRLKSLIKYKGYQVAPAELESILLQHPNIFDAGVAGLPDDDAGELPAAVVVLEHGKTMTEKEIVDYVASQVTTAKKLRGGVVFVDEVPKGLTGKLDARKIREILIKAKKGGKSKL

[4] = Luminescence Cell-Based Dose Response HTS to Identify Inhibitors of 5'UTR Stem-Loop Driven Prion Protein mRNA Translation in H4 Neuroglioblastoma Cells. [Related pubchem assays: 1827 (Project Summary), 1813 (Primary HTS)]; type: functional
[5] = Fluorescence Cell-Based Dose Response to Identify Inhibitors of Thrombin Receptor-Activating Peptide SFLLRN-Mediated P-Selectin Induction on Platelets. [Related pubchem assays: 1663 (Primary HTS), 1889 (retest at dose ), 1891 (counterscreen), 1678 (Project Summary)]; type: functional
[6] = luciferase reporter signal suppression in cells – H4 neuroglioma cells, luminescence, dose response (AID 1990); type: functional, cell-based
[7] = Luminescence Cell-Based Dose Confirmation HTS to Identify Inhibitors of Platelet Dense Granule Release. [Related pubchem assays: 1663 (Primary HTS), 1678 (Summary of Project)]; type: functional
[8] = HIV-1 Vif–A3G interaction blockers – biochemical, TR-FRET, GST-Vif 1-94, biotin-A3G peptide, dose response retest, primary screen (AID 1117319); type: functional;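 also: TR-FRET signal of purified GST-Vif binding a biotinylated A3G peptide; inhibitors lower the FRET signal by blocking Vif and A3G binding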
[9] = glucagon-like peptide-1 release potency in STC-1, concentration-response, half-maximal inhibitory concentration in the STC-1 line (AID 1117345); type: functional, cell-based
[10] = Potency on glucagon-like peptide 1 release, dose-response in NCI-H716 cell line, half maximal inhibitory concentration (AID 1117344); type: functional, cell-based
Beta-galactosidase = Beta-galactosidase (Escherichia coli, UniProt Q8VNN2); assay: detection-enzyme interference by beta-gal modulators – biochemical, E. coli enzyme, set 3, artefact control for CCR6 antagonist project, dose response (AID 504712); type: functional
Sequence of Beta-galactosidase (Q8VNN2 whole entry): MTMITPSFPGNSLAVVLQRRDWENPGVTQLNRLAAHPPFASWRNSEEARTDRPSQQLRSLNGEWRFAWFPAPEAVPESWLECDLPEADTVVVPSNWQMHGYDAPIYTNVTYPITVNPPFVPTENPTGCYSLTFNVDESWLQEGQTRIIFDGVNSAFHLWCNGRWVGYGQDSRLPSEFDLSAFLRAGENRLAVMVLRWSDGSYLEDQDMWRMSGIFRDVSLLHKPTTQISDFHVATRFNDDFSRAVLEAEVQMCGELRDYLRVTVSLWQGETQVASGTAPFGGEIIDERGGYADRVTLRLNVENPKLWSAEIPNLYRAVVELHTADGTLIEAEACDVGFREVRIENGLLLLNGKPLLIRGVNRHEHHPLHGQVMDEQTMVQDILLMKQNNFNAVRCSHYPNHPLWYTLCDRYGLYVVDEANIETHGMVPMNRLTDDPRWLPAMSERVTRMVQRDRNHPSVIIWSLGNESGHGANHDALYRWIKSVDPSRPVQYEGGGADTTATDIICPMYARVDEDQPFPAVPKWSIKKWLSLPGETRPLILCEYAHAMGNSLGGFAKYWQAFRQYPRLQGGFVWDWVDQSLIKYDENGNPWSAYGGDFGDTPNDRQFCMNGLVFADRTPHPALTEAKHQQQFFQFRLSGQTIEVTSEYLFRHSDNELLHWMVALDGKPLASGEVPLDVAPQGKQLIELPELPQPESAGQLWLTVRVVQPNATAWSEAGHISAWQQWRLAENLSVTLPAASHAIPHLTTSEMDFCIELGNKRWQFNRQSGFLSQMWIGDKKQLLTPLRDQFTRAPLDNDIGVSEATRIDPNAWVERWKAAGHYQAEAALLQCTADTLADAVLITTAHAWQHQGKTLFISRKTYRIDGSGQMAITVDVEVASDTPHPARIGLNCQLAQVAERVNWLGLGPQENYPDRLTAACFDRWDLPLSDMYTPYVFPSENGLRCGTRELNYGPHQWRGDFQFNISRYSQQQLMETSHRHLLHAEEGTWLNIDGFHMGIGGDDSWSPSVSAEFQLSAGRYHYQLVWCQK

Phospholipase A2 = Phospholipase A2 (Homo sapiens, UniProt P04054); type: functional;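 also: confirmatory dose-response counterscreen on phospholipase A2, testing hits that came from an ultra-high-throughput screen for ATG4B inhibitors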
Sequence of Phospholipase A2 (P04054 whole entry): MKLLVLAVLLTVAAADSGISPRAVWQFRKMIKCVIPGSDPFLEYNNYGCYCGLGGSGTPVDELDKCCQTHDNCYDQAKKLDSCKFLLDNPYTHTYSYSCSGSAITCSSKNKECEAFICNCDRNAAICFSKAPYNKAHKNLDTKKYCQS

[11] = target: Induced myeloid leukemia cell differentiation protein Mcl-1 (Homo sapiens, UniProt Q07820); type: functional
Bcl-2-like protein 10 = target: T1, Bcl-2-like protein 10 (Homo sapiens, UniProt Q9HD36); assay: Bcl-B/TR3 peptide binding disruption – biochemical, fluorescence polarization, FITC-TR3 peptide, selectivity assay for Bfl-1 inhibitor project, primary screen (AID 748);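 also: fluorescence polarization from a fluorescein-labelled TR3 peptide binding purified Bcl-B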
T1 sequence (Q9HD36 whole entry): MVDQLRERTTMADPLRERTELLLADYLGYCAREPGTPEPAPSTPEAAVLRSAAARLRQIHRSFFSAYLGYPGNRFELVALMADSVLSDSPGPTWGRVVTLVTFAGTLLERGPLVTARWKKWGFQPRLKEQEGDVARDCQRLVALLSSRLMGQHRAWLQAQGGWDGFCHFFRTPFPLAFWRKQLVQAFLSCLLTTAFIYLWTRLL

Cysteine protease ATG4B = target: T2, Cysteine protease ATG4B (Homo sapiens, UniProt Q9Y4P1); type: functional;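 also: Fluorescence-based dose-response confirmation assay measuring inhibition of ATG4B activity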
T2 sequence (Q9Y4P1 whole entry): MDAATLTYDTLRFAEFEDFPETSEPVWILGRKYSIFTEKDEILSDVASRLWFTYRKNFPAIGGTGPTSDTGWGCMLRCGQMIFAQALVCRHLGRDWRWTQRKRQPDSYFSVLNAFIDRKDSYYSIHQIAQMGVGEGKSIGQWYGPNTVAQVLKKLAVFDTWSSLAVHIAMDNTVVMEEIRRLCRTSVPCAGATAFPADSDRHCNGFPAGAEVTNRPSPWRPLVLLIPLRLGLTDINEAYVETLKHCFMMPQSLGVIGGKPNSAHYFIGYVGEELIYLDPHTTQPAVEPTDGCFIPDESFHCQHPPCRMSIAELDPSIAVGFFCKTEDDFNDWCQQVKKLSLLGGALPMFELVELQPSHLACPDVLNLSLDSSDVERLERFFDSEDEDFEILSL

Genome polyprotein = Genome polyprotein (Hepatitis C virus, UniProt Q2Q167); assay: disruption of hepatitis C core self-association – biochemical, TR-FRET, dose response (AID 2159); design: species or system Hepacivirus hominis;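 also: blocks dimerization of HCV core protein measured by TR-FRET between tagged core106 pairs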
[12] = system: Streptococcus sp. 'group A'; assay: Streptococcus pyogenes SK(-)GAS viability under kanamycin – luminescence, BacTiterGlo, confirmation, counter-screen for streptokinase expression inhibitor project, dose response (AID 1900); type: functional, organism-based
Streptococcus = assay: GAS UMAA2166 growth inhibition – luminescence, BacTiterGlo, counter-screen for streptokinase expression inhibitor project, dose response (AID 1915); type: functional, organism-based;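 also: potency for reduction of bacterial viability or growth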
[13] = target: DNA (cytosine-5)-methyltransferase 1 (Homo sapiens, UniProt P26358); assay: inhibition of DNA methylation by DNMT1 – biochemical, fluorescent molecular beacon, confirmation (AID 602386); type: functional
Sequence of DNA (cytosine-5)-methyltransferase 1 (P26358 whole entry): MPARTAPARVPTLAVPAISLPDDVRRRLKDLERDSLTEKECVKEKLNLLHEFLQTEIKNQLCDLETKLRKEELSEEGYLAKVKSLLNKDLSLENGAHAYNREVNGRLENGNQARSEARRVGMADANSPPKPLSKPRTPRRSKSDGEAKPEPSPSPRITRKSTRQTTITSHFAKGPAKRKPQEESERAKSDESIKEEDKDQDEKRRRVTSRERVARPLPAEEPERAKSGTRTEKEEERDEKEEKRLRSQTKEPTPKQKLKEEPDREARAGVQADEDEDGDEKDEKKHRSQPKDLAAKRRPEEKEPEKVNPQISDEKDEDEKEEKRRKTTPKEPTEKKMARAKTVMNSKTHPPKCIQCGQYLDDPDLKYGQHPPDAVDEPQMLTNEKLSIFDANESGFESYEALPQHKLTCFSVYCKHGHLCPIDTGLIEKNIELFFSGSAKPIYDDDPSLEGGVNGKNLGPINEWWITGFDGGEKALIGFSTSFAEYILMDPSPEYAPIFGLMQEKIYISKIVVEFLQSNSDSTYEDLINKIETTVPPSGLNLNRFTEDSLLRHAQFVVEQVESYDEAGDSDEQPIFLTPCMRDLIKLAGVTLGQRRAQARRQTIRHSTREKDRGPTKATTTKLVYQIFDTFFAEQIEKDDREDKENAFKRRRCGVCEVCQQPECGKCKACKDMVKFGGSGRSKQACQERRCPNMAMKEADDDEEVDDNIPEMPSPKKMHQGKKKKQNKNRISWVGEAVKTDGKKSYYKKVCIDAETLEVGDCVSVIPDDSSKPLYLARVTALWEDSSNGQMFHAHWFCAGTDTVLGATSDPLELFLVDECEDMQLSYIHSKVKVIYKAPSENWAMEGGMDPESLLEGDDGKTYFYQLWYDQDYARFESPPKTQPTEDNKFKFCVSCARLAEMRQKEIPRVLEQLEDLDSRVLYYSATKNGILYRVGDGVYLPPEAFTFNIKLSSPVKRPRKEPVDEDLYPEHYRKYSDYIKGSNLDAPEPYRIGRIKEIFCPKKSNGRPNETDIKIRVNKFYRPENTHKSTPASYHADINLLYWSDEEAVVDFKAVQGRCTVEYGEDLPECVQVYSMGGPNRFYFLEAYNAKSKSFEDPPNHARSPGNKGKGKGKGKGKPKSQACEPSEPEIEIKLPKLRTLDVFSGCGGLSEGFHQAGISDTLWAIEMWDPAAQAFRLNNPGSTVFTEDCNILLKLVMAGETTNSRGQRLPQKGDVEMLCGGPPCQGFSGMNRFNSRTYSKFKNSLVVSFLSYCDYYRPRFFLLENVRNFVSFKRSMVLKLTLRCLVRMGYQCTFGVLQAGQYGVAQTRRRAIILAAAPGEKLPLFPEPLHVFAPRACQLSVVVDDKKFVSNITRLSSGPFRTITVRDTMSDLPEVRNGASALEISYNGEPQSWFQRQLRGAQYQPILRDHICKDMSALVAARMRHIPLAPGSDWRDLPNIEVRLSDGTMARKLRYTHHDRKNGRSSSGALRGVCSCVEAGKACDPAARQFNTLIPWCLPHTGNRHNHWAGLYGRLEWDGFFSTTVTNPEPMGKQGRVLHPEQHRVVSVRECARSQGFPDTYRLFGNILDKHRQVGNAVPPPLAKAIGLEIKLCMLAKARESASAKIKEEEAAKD

NADPH oxidase 1 = NADPH oxidase 1 (Homo sapiens, UniProt Q9Y5S8); assay: Late-stage luminescence-based cell-based dose response assay to identify inhibitors of NADPH oxidase 1 (NOX1): Synthesized analogs.; type: functional
Sequence of NADPH oxidase 1 (Q9Y5S8 whole entry): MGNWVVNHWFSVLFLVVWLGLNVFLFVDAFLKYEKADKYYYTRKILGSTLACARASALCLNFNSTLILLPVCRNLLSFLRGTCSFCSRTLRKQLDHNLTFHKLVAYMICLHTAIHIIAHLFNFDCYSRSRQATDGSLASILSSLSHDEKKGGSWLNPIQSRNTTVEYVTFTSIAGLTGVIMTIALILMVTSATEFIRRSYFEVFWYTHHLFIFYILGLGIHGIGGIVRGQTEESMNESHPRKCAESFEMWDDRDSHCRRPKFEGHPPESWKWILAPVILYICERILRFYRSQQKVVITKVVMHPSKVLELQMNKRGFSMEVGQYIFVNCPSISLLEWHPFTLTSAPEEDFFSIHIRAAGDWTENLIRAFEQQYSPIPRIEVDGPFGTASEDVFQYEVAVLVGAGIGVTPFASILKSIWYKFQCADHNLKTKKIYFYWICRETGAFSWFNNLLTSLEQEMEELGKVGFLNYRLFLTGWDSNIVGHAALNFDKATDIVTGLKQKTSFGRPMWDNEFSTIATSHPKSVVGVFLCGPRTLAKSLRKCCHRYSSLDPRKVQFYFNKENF

[14] = target: Complement C1s subcomponent (Homo sapiens, UniProt P09871); assay: Complement C1s ELISA. [Related pubchem assays: 538, 787 ]; type: functional
Sequence of Complement C1s subcomponent (P09871 16-437 limits assumed): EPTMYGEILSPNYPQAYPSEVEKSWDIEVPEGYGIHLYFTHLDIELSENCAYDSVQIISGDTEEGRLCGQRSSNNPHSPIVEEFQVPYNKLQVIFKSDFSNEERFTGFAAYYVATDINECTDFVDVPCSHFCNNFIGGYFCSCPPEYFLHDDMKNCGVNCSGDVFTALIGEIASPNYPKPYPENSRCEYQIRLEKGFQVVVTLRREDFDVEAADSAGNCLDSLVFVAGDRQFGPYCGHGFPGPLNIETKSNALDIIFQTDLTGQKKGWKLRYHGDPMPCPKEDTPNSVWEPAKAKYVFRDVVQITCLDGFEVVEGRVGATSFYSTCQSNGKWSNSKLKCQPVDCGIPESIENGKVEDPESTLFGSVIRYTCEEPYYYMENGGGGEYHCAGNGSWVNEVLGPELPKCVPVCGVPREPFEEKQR
Sequence of Complement C1s subcomponent (P09871 438-688 limits assumed): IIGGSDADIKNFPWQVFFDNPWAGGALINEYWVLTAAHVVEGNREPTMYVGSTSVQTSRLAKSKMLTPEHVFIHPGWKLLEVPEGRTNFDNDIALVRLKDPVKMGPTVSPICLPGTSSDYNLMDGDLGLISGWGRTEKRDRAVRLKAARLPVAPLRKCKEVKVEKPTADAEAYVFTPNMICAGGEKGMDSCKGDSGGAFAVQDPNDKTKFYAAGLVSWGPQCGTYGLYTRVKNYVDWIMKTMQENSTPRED

Prothrombin = Prothrombin (Homo sapiens, UniProt P00734); assay: Thrombin 1536 HTS Dose Response Confirmation. [Related pubchem assays: 1046 (Thrombin 1536 HTS; hits were confirmed in this assay)]; type: functional
Vero [15] = assay: inhibition of WNV-induced cytopathic effect – cell-based, CPE readout (AID 1621); type: functional; conditions: Chlorocebus sabaeus
Vero [16] = assay: cells; type: functional, cell-based; conditions: Chlorocebus sabaeus
Vero [17] = assay: cells; type: functional; conditions: Chlorocebus sabaeus
H4 = assay: Luminescence Cell-Based Dose Response HTS to Identify Activators of 5'UTR Stem-Loop Driven Prion Protein mRNA Translation in H4 Neuroglioblastoma Cells. [Related pubchem assays: 1829 (Project Summary), 1814 (Primary HTS)]; type: functional; conditions: Homo sapiens
Transthyretin = Transthyretin (Homo sapiens, UniProt P02766); assay: Luminescence-based cell-based high throughput dose response assay to identify activators of Transthyretin (TTR) transcription.; type: functional
[18] = Luminescence Cell-Based Dose Response HTS to Identify Activators of Luciferase Translation or Activity in H4 […] Cells. [Related pubchem assays: 1829 (Project Summary), 1814 (Primary HTS)]; type: functional
[19] = Luminescence Cell-Based Dose Confirmation HTS to Identify Activators of 5'UTR Stem-Loop Driven Alpha-Synuclein mRNA Translation in H4 Neuroglioblastoma Cells. [Related pubchem assays: 1829 (Project Summary), 1814 (Primary HTS)]; type: functional
[20] = target: T3, Oxysterols receptor LXR-beta (Homo sapiens, UniProt P55055); type: functional, cell-based;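 also: Cell-based luminescence dose-response assay of agonist activity at LXR, run as a confirmatory counterscreen to a daf-12 agonist screen; HEK293 cells with Gal4-LXR fusion and GAL4-driven luciferase reporter; agonist potency from rising luciferase signal of a Gal4-LXR reporter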
T3 sequence (P55055 whole entry): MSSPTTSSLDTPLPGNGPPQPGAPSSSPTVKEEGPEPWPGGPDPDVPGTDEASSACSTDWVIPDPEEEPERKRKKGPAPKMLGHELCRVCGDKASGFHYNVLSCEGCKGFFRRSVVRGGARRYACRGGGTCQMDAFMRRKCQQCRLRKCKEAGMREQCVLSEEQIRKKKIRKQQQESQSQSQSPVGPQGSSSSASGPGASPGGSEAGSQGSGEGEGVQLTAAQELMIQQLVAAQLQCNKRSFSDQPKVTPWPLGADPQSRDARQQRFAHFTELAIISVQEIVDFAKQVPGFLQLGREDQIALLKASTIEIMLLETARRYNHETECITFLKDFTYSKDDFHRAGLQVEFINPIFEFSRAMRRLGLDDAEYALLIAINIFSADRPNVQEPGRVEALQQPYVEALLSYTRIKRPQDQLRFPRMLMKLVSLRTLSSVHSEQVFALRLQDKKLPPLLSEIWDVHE

Protein skinhead-1 = target: T4, Protein skinhead-1 (Caenorhabditis elegans, UniProt P34707); type: functional
T4 sequence (P34707 whole entry): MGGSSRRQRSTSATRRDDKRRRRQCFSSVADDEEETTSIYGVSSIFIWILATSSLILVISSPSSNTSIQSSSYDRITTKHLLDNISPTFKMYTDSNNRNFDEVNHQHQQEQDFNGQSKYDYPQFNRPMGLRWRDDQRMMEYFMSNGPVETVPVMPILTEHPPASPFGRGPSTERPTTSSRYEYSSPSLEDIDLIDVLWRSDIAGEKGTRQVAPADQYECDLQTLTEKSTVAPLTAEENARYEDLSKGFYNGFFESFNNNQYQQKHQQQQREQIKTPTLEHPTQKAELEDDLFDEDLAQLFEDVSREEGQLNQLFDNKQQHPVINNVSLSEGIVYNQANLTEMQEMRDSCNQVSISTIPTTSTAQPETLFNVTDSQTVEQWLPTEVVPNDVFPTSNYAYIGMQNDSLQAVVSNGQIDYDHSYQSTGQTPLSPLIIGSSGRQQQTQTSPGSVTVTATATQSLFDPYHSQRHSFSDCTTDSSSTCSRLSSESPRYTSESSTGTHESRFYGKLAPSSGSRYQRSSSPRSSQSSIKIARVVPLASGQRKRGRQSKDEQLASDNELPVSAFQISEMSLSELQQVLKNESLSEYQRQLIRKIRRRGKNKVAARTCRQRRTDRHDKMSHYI

Kallikrein-7 = Kallikrein-7 (Homo sapiens, UniProt P49862); assay: Fluorescence Intensity-based biochemical primary high throughput dose response assay to identify activators of kallikrein-7 (K7) zymogen.
[21] = HepG2 hepatoma cell viability loss – plate reader, dry powder, cytotoxicity control, dose response (AID 651947); type: functional, cell-based
[22] = inhibitors of non-replicating M. tuberculosis, dose response, luciferase, dry powder (AID 651620); type: functional; conditions: Mycobacterium tuberculosis
[23] = HeLa cell viability loss – plate reader, dry powder, cytotoxicity control, dose response (AID 651946); type: functional, cell-based
[24] = inhibitors of non-replicating M. tuberculosis, dose response, luciferase, dry powder (AID 651619); type: functional; conditions: Mycobacterium tuberculosis
[25] = embryonic kidney cell viability loss – CellTiter-Glo luminescence, dry powder, set 20, cytotoxicity control, dose response (AID 1117293); type: functional, cell-based; conditions: HEK293
[26] = Dd2 parasite growth inhibition in erythrocytes – SYBR Green, dry powder samples, set 9, dose response (AID 1159568); type: functional, cell-based
[27] = lung carcinoma cell viability loss – CellTiter-Glo luminescence, dry powder, set 17, dose response (AID 1117284); type: functional, cell-based; conditions: A549
[28] = Orthopox viral replication plaque formation Measured in Cell-Based and Microorganism Combination System Using Imaging - 2142-05_Inhibitor_Dose_DryPowder_Activity.; type: functional
[29] = Single fluorophore orthopox expression reporter, late gene expression Measured in Cell-Based and Microorganism Combination System Using Plate Reader - 2142-08_Inhibitor_Dose_DryPowder_Activity.; type: functional
[30] = inhibitors of orthopox intermediate gene expression, dose response, cell-based, single fluorophore reporter, dry powder (AID 1117271); type: functional
[31] = target: RNA-editing ligase 1, mitochondrial (Trypanosoma brucei brucei, UniProt P86926); assay: inhibition of trypanosome RNA editing ligase – biochemical, fluorescence, Trypanosoma brucei, dose response (AID 1117295); type: functional
Sequence of RNA-editing ligase 1, mitochondrial (P86926 whole entry): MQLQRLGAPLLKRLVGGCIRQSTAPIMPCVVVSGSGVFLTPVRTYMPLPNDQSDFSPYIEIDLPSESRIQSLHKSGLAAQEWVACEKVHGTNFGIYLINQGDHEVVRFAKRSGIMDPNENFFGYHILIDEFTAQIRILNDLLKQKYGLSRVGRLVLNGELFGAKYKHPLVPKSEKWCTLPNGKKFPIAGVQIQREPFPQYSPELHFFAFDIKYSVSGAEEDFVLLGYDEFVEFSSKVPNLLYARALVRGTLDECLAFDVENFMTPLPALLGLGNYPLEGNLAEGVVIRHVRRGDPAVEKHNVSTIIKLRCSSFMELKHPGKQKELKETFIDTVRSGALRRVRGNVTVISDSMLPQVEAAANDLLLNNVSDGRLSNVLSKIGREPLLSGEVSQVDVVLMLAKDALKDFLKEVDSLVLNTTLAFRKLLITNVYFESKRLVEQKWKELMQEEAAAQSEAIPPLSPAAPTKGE

O=C(Nc1nccs1)c1cc(-c2ccccc2)nn1-c1ccccc1
IC50 [1]: > 37.2 µM (inactive)

COc1cc2c(cc1OC)-c1cc(Nc3ccccc3C)nc(=O)n1CC2
EC50 [2]: 17.8 µM (active)
EC50 [3]: > 112 µM (not active)
EC50 [4]: 49.5 µM (active)
EC50 [5]: < 0.3 µM (active)
EC50 [6]: 15.6 µM (active)
EC50 [7]: 0.24 µM (active)

COc1cccc(-c2cc(C(=O)Nc3cnn(Cc4ccccc4C)c3)no2)c1
IC50 [8]: > 100 µM (active)

Oc1cccc2cccnc12
IC50 [9]: > 20 µM (inactive)
IC50 [10]: > 40 µM (inactive)

CCOc1cc(/C=C2\C(=O)N(c3nc(-c4ccc(Br)cc4)cs3)N=C2c2ccccc2)ccc1O
IC50 (Beta-galactosidase): > 66.6 µM (inactive)
IC50 (Phospholipase A2): 6.97 µM (active)
IC50 [11]: 2.54 µM (active)
IC50 (Bcl-2-like protein 10): 43.8 µM (active)
IC50 (Cysteine protease ATG4B): 5.08 µM (active)
IC50 (Genome polyprotein): > 49.8 µM (not active)
EC50 [12]: 1.78 µM (active)
EC50 (Streptococcus): 3.67 µM (active)
IC50 [13]: 4.35 µM (active)

O=C(c1ccco1)N1c2ccccc2Sc2ccccc21
IC50 (NADPH oxidase 1): 6.37 µM (active)

COc1ccc(-c2nc(SC)n(C(=O)c3ccco3)n2)cc1
IC50 [14]: > 50 µM (not active)
IC50 (Prothrombin): 1.14 µM (active)

Cc1ccc(S(=O)(=O)N(C)C)cc1NC(=O)c1cncc(Br)c1
IC50 (Vero [15]): 32 µM (active)
IC50 (Vero [16]): > 25 µM (active)
CC50 (Vero [17]): > 25 µM (active)

Cc1c(Br)c(C(=O)N2CCc3ccccc32)nn1C
EC50 (H4): 99.2 µM (active)
EC50 (Transthyretin): > 167 µM (inactive)
EC50 [18]: 6.16 µM (active)
EC50 [19]: 11.7 µM (active)

CNc1ccc(C=C2C=Cc3ccccc32)cc1
EC50 [20]: > 67.6 µM (inactive)
IC50 (Protein skinhead-1): 20.5 µM (active)
EC50 (cells): > 67.6 µM (inactive)

COC(=O)c1ccc(N2C(c3cc(OC)cc(OC)c3)=Cc3ccc(-c4ccc(C(N)=O)cc4)cc3C2CC(=O)C2CC2)cc1 (centres undefined)
EC50 (Kallikrein-7): > 7.72 µM (active)

c1ccc(Sc2nnc(-c3ccccc3)o2)cc1
AC50 [21]: 42.9 µM (active)
IC90 [22]: 1 µM (active)
AC50 [23]: > 52 µM (inactive)
IC90 [24]: 1 µM (active)

O=S(=O)(Nc1cc(C(F)(F)F)ccc1N1CCCCC1)c1ccc(-c2ccccc2)cc1
AC50 [25]: 0.852 µM (active)

O=C(Nc1ccccc1F)N1CCCCN2[C@H](C1)[C@H](c1ccc(/C=C/c3ccccc3)cc1)[C@@H]2CO
AC50 [26]: 3.61 µM (active)

Cc1ccc(-c2ccc(CN(C)C[C@@H]3Oc4cc(C#C[C@@H](C)O)ccc4S(=O)(=O)N([C@@H](C)CO)C[C@@H]3C)cc2)cc1
AC50 [27]: > 52 µM (inactive)
AC50 [28]: 1.76 µM (active)
AC50 [29]: 1.13 µM (active)
AC50 [30]: 1.95 µM (active)

COC(=O)C1=C(C)N(Cc2ccc(C(F)(F)F)cc2)C(NCc2ccc(OC)cc2)=NC1c1ccccc1C(F)(F)F (centres undefined)
IC50 [31]: > 96.6 µM (inactive)
